Test results published in patent publication EP4455159A1, “GASTRIC INHIBITORY PEPTIDE RECEPTOR LIGANDS WITH BIO-DISTRIBUTION MODIFIER” (3B Pharmaceuticals GmbH, priority 2023, dated 2024).
Starred links: 1 amine or outer side, 2 acyl side, 3 side chain; linkers in the order of their positions; H or OH if unused. Positions of bridges follow the written chain, without caps; N, C: chain ends. Residues, ends and D or L forms follow the SMILES beside them. *: point of attachment. X1 = NC(=O)[C@H](CCCCNC(=O)CCCC[C@@H]1SC[C@@H]2NC(=O)N[C@@H]21)NC(=O)CCC(=O)NCCCOCCOCCOCCCN*; mXylylene = c1cc(C[*:1])cc(C[*:2])c1

Target: T1, GIPR (Homo sapiens, UniProt P48546)
T1 construct: host or cells: CHO-K1
T1 sequence (P48546 22-466): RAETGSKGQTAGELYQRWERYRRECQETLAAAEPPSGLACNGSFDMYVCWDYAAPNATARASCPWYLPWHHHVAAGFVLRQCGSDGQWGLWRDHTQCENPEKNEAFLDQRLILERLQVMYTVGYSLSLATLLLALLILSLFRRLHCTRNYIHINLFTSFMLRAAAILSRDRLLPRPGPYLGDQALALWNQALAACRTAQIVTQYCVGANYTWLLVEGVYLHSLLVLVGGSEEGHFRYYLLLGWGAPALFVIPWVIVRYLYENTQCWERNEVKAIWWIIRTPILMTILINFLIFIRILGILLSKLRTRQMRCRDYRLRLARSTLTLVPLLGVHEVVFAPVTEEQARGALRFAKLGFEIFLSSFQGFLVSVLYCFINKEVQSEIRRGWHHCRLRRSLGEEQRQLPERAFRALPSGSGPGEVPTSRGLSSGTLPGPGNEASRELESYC
Assay: FACS binding assay
Conditions: CHO-K1-hGIPR cells, various concentrations of biotinylated compound, 4°C for 1 hour, APC-Streptavidin detection
Method: In order to determine binding of compounds according to the present invention to GIPR-expressing cells, a FACS binding assay is established.
CHO-K1-hGIPR cells (GenScript Biotech, #M00486) are cultured in Ham's F12 medium (Sigma-Aldrich, #N4888) including 10% fetal calf serum (FCS), 2 mM L-glutamine, 100 U/mL penicillin, 100 µg/mL streptomycin, 200µg/mL Zeocin and 100µg/mL HygromycinB. Cells are detached with Accutase (Biolegend, #BLD-423201) and washed in FACS buffer (PBS including 1% FCS). Cells are diluted in FACS buffer to a final concentration of 500.000 cells per mL. 200 µL of the cell suspension is transferred to a u-shaped non-binding 96-well plate (Greiner) and cells are washed in ice-cold FACS buffer.
For EC50 determination, cells are incubated with various concentrations of biotinylated compound (H-Met-Tyr-Asp-Trp-Trp-Pro-Glu-Leu-[Cys(3MeBn)-Ala-Leu-Ile-Cys]-Ttds-Lys(Bio)-NH2) (SEQ ID NO: 3) at 4°C for 1 hour. […] For IC50 determination, cells are incubated with 20 nM of the biotinylated compound in the presence of increasing concentrations of non-labeled test compounds at 4°C for 1 hour. Cells are washed twice in FACS buffer. […]
Cells are analyzed in an Attune NxT flow cytometer. Median fluorescence intensities (MFI) of the APC/Cy5-channel are calculated by Attune NxT software. […]

## CC[C@H](C)[C@@H]1NC(=O)[C@H](CC(C)C)NC(=O)[C@H](C)NC(=O)[C@@H](NC(=O)[C@H](CC(C)C)NC(=O)[C@H](CCC(=O)O)NC(=O)[C@@H]2CCCN2C(=O)[C@H](Cc2c[nH]c3ccccc23)NC(=O)[C@H](Cc2c[nH]c3ccccc23)NC(=O)[C@H](CC(=O)O)NC(=O)[C@H](Cc2ccc(O)cc2)NC(=O)[C@@H](N)CCSC)CSCc2cccc(c2)CSC[C@@H](C(=O)NCCCOCCOCCOCCCNC(=O)CCC(=O)N[C@@H](CCCCNC(=O)CCCC[C@@H]2SC[C@@H]3NC(=O)N[C@@H]32)C(N)=O)NC1=O [biotinylated compound, H-Met-Tyr-Asp-Trp-Trp-Pro-Glu-Leu-[Cys(3MeBn)-Ala-Leu-Ile-Cys]-Ttds-Lys(Bio)-NH2] (H-MYDWWPELCALIC-X1; linker 9-13 via mXylylene)
  EC50: 3.16 nM
